Test results taken from patent US11053242B2, “[9,10-dimethoxy-3-(2-methylpropyl)-1H,2H,3H,4H,6H,7H,11BH-pyrido-[2,1-a]isoquinolin-2-yl]methanol and compounds, compositions and methods relating thereto” (Neurocrine Biosciences, Inc., priority 2015, dated 2021).

Assays:
[1] = In vitro human intestinal S9 hydrolysis assay (formation of compound 1-1); conditions: human intestinal S9, 1 uM, 37° C., up to 60 minutes
Description: Compounds (1 uM) were incubated with pooled intestinal S9 subcellular preparations (0.5 mg/mL total protein) from SD rats and humans without the addition of protease inhibitor phenylmethylsulfonylflouride. Incubations were carried out in a potassium phosphate buffer (50 mM). All concentrations were relative to the final incubation volume of 125 uL. Incubations were conducted at 37° C. for 0, 5, 10, 20, 40 and 60 minutes in a water bath and terminated by rapid mixing with 150 uL of ice-cold acetonitrile containing 1% formic acid. Internal standard was added and proteins were precipitated and removed by centrifugation prior to LC/MS analysis.

[2] = target: VMAT2 (human platelet homogenate) (Homo sapiens (Human), UniProt Q05940); assay: Human VMAT2 Ki, slightly modified competition binding procedure (Table 11); conditions: 10 nM 3H-dihydrotetrabenazine;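 also: competition binding with 90 min incubation at 25 °C, after which filter-retained radioligand was measured by scintillation counting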
Sequence of VMAT2 (human platelet homogenate) (Q05940 whole entry): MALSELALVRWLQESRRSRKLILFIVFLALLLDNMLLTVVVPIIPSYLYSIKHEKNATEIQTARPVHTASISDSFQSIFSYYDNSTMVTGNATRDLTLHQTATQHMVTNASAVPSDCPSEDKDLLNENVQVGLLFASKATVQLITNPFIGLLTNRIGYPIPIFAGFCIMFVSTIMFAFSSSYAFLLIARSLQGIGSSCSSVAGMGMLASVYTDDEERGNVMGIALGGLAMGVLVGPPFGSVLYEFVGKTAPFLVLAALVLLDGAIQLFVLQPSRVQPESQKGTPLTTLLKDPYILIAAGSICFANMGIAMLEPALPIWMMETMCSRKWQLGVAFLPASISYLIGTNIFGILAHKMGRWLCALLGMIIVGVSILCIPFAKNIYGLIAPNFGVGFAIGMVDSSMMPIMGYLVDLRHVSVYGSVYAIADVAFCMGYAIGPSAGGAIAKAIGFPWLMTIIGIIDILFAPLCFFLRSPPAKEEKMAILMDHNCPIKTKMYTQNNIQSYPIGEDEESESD
Description: Following incubation at 25° C. for 90 minutes, bound radioligand was collected by rapid filtration onto GF/B glass fiber filters using a Unifilter-96 Harvester (PerkinElmer). Filter plates were pre-treated with 0.1% polyethylenimine and allowed to dry overnight, and following harvesting the filter plates were washed with 800 d VMAT2 binding buffer. Bound radioligand was quantified by scintillation counting using a Topcount NXT (PerkinElmer).

Question: For `COc1cc2c(cc1OC)[C@H]1C[C@@H](COC(=O)CC3CCCN3)[C@H](CC(C)C)CN1CC2` (stereo partly drawn) [Compound 4-28, [(2R,3S,11bR)-9,10-dimethoxy-3-(2-methylpropyl)-1H,2H,3H,4H,6H,7H,11bH-pyrido[2,1-a]isoquinolin-2-yl]methyl 2-(pyrrolidin-2-yl)acetate], which “S9 Assay (ability to form compound 1-1)” value [1] is on record?
Answer: Its value is “++”.

Question: What about the Ki [2] of the same compound?
Answer: Its Ki is < 10 nM.

Question: For `COc1cc2c(cc1OC)[C@H]1C[C@@H](COC(=O)NCC3(CC(=O)O)CCCCC3)[C@H](CC(C)C)CN1CC2` [Compound 5-34, 2-(1-{[({[(2R,3S,11bR)-9,10-dimethoxy-3-(2-methylpropyl)-1H,2H,3H,4H,6H,7H,11bH-pyrido[2,1-a]isoquinolin-2-yl]methoxy}carbonyl)amino]methyl}cyclohexyl)acetic acid], which “S9 Assay (ability to form compound 1-1)” value [1] is on record?
Answer: Its value is “+”.

Question: And the Ki [2]?
Answer: Its Ki is 10 to 500 nM.

Question: What does the source list for `COc1cc2c(cc1OC)[C@H]1C[C@@H](COC(=O)NC3(C(=O)O)CCCCC3)[C@H](CC(C)C)CN1CC2` [Compound 5-23, l-[({[(2R,3S,11bR)-9,10-dimethoxy-3-(2-methylpropyl)-1H,2H,3H,4H,6H,7H,11bH-pyrido[2,1-a]isoquinolin-2-yl]methoxy}carbonyl)amino]cyclohexane-1-carboxylic acid]?
Answer: S9 Assay (ability to form compound 1-1) [1]: ++; Ki [2]: 10 to 500 nM

Question: Which results are given for `COc1cc2c(cc1OC)[C@H]1C[C@@H](COC(=O)C3(OC)CCNCC3)[C@H](CC(C)C)CN1CC2` [Compound 4-22, [(2R,3S,11bR)-9,10-dimethoxy-3-(2-methylpropyl)-1H,2H,3H,4H,6H,7H,11bH-pyrido[2,1-a]isoquinolin-2-yl]methyl 4-methoxypiperidine-4-carboxylate]?
Answer: S9 Assay (ability to form compound 1-1) [1]: ++; Ki [2]: < 10 nM

Question: For `COc1cc2c(cc1OC)[C@H]1C[C@@H](COC(=O)N3CCC(C(=O)O)CC3)[C@H](CC(C)C)CN1CC2` [Compound 5-52, 1-({[(2R,3S,11bR)-9,10-dimethoxy-3-(2-methylpropyl)-1H,2H,3H,4H,6H,7H,11bH-pyrido[2,1-a]isoquinolin-2-yl]methoxy}carbonyl)piperidine-4-carboxylic acid], which “S9 Assay (ability to form compound 1-1)” value [1] is on record?
Answer: The value was “+”.

Question: What about the Ki [2] of the same compound?
Answer: Its Ki is > 500 nM.

Question: With `COc1cc2c(cc1OC)[C@H]1C[C@@H](COC(=O)N3CCC(C(=O)O)(N(C)C)CC3)[C@H](CC(C)C)CN1CC2` [Compound 5-43, 1-({[(2R,3S,11bR)-9,10-dimethoxy-3-(2-methylpropyl)-1H,2H,3H,4H,6H,7H,11bH-pyrido[2,1-a]isoquinolin-2-yl]methoxy}carbonyl)-4-(dimethylamino)piperidine-4-carboxylic acid] as the compound, how does the “S9 Assay (ability to form compound 1-1)” value [1] read?
Answer: Its value is “+”.

Question: And the Ki [2]?
Answer: The Ki was > 500 nM.

Question: For `COc1cc2c(cc1OC)[C@H]1C[C@@H](COC(=O)N3CC4CCC(C3)N4)[C@H](CC(C)C)CN1CC2` [Compound 6-4, [(2R,3S,11bR)-9,10-dimethoxy-3-(2-methylpropyl)-1H,2H,3H,4H,6H,7H,11bH-pyrido[2,1-a]isoquinolin-2-yl]methyl 3,8-diazabicyclo[3.2.1]octane-3-carboxylate], which “S9 Assay (ability to form compound 1-1)” value [1] is on record?
Answer: The value was “+”.

Question: And the Ki [2]?
Answer: The Ki was < 10 nM.

Question: For `COc1cc2c(cc1OC)[C@H]1C[C@@H](COC(=O)C3CC3C(=O)O)[C@H](CC(C)C)CN1CC2` (stereo partly drawn) [Compound 3-4, 2-({[(2R,3S,11bR)-9,10-dimethoxy-3-(2-methylpropyl)-1H,2H,3H,4H,6H,7H,11bH-pyrido[2,1-a]isoquinolin-2-yl]methoxy}carbonyl)cyclopropane-1-carboxylic acid], which “S9 Assay (ability to form compound 1-1)” value [1] is on record?
Answer: Its value is “++”.

Question: And the Ki [2]?
Answer: The Ki was 10 to 500 nM.

Question: For `COc1cc2c(cc1OC)[C@H]1C[C@@H](COC(=O)N(C)[C@H](C)C(=O)O)[C@H](CC(C)C)CN1CC2` [Compound 5-17, (2R)-2-[({[(2R,3S,11bR)-9,10-dimethoxy-3-(2-methylpropyl)-1H,2H,3H,4H,6H,7H,11bH-pyrido[2,1-a]isoquinolin-2-yl]methoxy}carbonyl)(methyl)amino]propanoic acid], which “S9 Assay (ability to form compound 1-1)” value [1] is on record?
Answer: The value was “+”.

Question: And the Ki [2]?
Answer: The Ki was 10 to 500 nM.

Question: With `COc1cc2c(cc1OC)[C@H]1C[C@@H](COC(=O)N(C)CCCC(=O)O)[C@H](CC(C)C)CN1CC2` [Compound 5-25, 4-[({[(2R,3S,11bR)-9,10-dimethoxy-3-(2-methylpropyl)-1H,2H,3H,4H,6H,7H,11bH-pyrido[2,1-a]isoquinolin-2-yl]methoxy}carbonyl)(methyl)amino]butanoic acid] as the compound, how does the “S9 Assay (ability to form compound 1-1)” value [1] read?
Answer: The value was “+”.

Question: And the Ki [2]?
Answer: The Ki was > 500 nM.

Question: Which “S9 Assay (ability to form compound 1-1)” value [1] does the source give for `COc1cc2c(cc1OC)[C@H]1C[C@@H](COC(=O)N3CCC(C(=O)O)C3)[C@H](CC(C)C)CN1CC2` (stereo partly drawn) [Compound 5-49, 1-({[(2R,3S,11bR)-9,10-dimethoxy-3-(2-methylpropyl)-1H,2H,3H,4H,6H,7H,11bH-pyrido[2,1-a]isoquinolin-2-yl]methoxy}carbonyl)pyrrolidine-3-carboxylic acid] here?
Answer: The value was “+”.

Question: What about the Ki [2] of the same compound?
Answer: The Ki was 10 to 500 nM.

Question: With `COc1cc2c(cc1OC)[C@H]1C[C@@H](COC(=O)N[C@@H](CC(C)C)C(=O)O)[C@H](CC(C)C)CN1CC2` [Compound 5-20, (2S)-2-[({[(2R,3S,11bR)-9,10-dimethoxy-3-(2-methylpropyl)-1H,2H,3H,4H,6H,7H,11bH-pyrido[2,1-a]isoquinolin-2-yl]methoxy}carbonyl)amino]-4-methylpentanoic acid] as the compound, how does the “S9 Assay (ability to form compound 1-1)” value [1] read?
Answer: The value was “++”.

Question: And the Ki [2]?
Answer: The Ki was 10 to 500 nM.

Question: Which results are given for `COc1cc2c(cc1OC)[C@H]1C[C@@H](COC(=O)N[C@@H](C)C(=O)O)[C@H](CC(C)C)CN1CC2` [Compound 5-47, (2S)-2-[({[(2R,3S,11bR)-9,10-dimethoxy-3-(2-methylpropyl)-1H,2H,3H,4H,6H,7H,11bH-pyrido[2,1-a]isoquinolin-2-yl]methoxy}carbonyl)amino]propanoic acid]?
Answer: S9 Assay (ability to form compound 1-1) [1]: +; Ki [2]: 10 to 500 nM

Question: What does the source list for `COc1cc2c(cc1OC)[C@H]1C[C@@H](COC(=O)N(C)CC(=O)O)[C@H](CC(C)C)CN1CC2` [Compound 5-42, 2-[({[(2R,3S,11bR)-9,10-dimethoxy-3-(2-methylpropyl)-1H,2H,3H,4H,6H,7H,11bH-pyrido[2,1-a]isoquinolin-2-yl]methoxy}carbonyl)(methyl)amino]acetic acid]?
Answer: S9 Assay (ability to form compound 1-1) [1]: ++; Ki [2]: 10 to 500 nM

Question: Which “S9 Assay (ability to form compound 1-1)” value [1] does the source give for `COc1cc2c(cc1OC)[C@H]1C[C@@H](COC(=O)NC[C@@H](CC(=O)O)CC(C)C)[C@H](CC(C)C)CN1CC2` [Compound 5-19, (3R)-3-{[({[(2R,3S,11bR)-9,10-dimethoxy-3-(2-methylpropyl)-1H,2H,3H,4H,6H,7H,11bH-pyrido[2,1-a]isoquinolin-2-yl]methoxy}carbonyl)amino]methyl}-5-methylhexanoic acid] here?
Answer: Its value is “+”.

Question: What about the Ki [2] of the same compound?
Answer: The Ki was 10 to 500 nM.

Question: For `COc1cc2c(cc1OC)[C@H]1C[C@@H](COC(=O)C3CCN(C)CC3)[C@H](CC(C)C)CN1CC2` [Compound 2-25, [(2R,3S,11bR)-9,10-dimethoxy-3-(2-methylpropyl)-1H,2H,3H,4H,6H,7H,11bH-pyrido[2,1-a]isoquinolin-2-yl]methyl 1-methylpiperidine-4-carboxylate], which “S9 Assay (ability to form compound 1-1)” value [1] is on record?
Answer: Its value is “+++”.

Question: And the Ki [2]?
Answer: The Ki was < 10 nM.

Question: For `COc1cc2c(cc1OC)[C@H]1C[C@@H](COC(=O)C3CCCCC3C(=O)O)[C@H](CC(C)C)CN1CC2` (stereo partly drawn) [Compound 3-6, 2-({[(2R,3S,11bR)-9,10-dimethoxy-3-(2-methylpropyl)-1H,2H,3H,4H,6H,7H,11bH-pyrido[2,1-a]isoquinolin-2-yl]methoxy}carbonyl)cyclohexane-1-carboxylic acid], which “S9 Assay (ability to form compound 1-1)” value [1] is on record?
Answer: Its value is “++”.

Question: What about the Ki [2] of the same compound?
Answer: The Ki was 10 to 500 nM.
